Assay results published in ChEMBL document CHEMBL1131907, “Novel synthetic oleanane triterpenoids: a series of highly active inhibitors of nitric oxide production in mouse macrophages” (Bioorg Med Chem Lett, 1999).

Assays:
Format in all cases: functional, organism-based
[1] = species on record: Mus musculus; experiment: Inhibitory activity against production of nitric oxide induced by interferon-gamma in mouse macrophages
[2] = species on record: Mus musculus; experiment: Inhibitory activity against production of nitric oxide (NO) induced by interferon-gamma (IFN-gamma) in mouse macrophages above 1 uM concentration; Toxic
[3] = species on record: Mus musculus; experiment: Inhibitory activity against production of nitric oxide (NO) induced by interferon-gamma (IFN-gamma) in mouse macrophages below 1 uM concentration; Inactive

| SMILES | IC50 [1] [nM] | IC50 [2] | IC50 [3] |
| --- | --- | --- | --- |
| COC(=O)C1=C[C@]2(C)C3=CC(=O)C4C5CC(C)(C)CC[C@]5(C(=O)O)CC[C@@]4(C)[C@]3(C)CC[C@H]2C(C)(C)C1=O (some centres undefined) | 100 | – | – |
| COC(=O)[C@]12CCC(C)(C)CC1C1=CC(=O)[C@@H]3[C@@]4(C)C=C(C#N)C(=O)C(C)(C)[C@@H]4CC[C@@]3(C)[C@]1(C)CC2 (some centres undefined) | 20 | – | – |
| CC1(C)CC[C@]2(C(=O)O)CC[C@]3(C)C(=C2C1)CC(=O)[C@@H]1[C@@]2(C)C=C(C#N)C(=O)C(C)(C)[C@@H]2CC[C@]13C | 70 | – | – |
| CC1(C)CC[C@]2(C(=O)O)CC[C@]3(C)[C@H](C(=O)C=C4[C@@]5(C)C=CC(=O)C(C)(C)[C@@H]5CC[C@]43C)[C@@H]2C1 | 200 | – | – |
| COC(=O)[C@]12CCC(C)(C)CC1C1=CC[C@@H]3[C@@]4(C)C=C(C(N)=O)C(=O)C(C)(C)[C@@H]4CC[C@@]3(C)[C@]1(C)CC2 (some centres undefined) | 14000 | – | – |
| CC1(C)CC[C@]2(C(=O)O)CC[C@]3(C)C(=CC[C@@H]4[C@@]5(C)C=C(C=O)C(=O)C(C)(C)[C@@H]5CC[C@]43C)C2C1 (some centres undefined) | – | Toxic | Not Active |
| COC(=O)[C@]12CCC(C)(C)CC1C1=CC[C@@H]3[C@@]4(C)C=C(C(=O)O)C(=O)C(C)(C)[C@@H]4CC[C@@]3(C)[C@]1(C)CC2 (some centres undefined) | 800 | – | – |
| COC(=O)C1=C[C@]2(C)[C@H]3CC=C4C5CC(C)(C)CC[C@]5(C(=O)O)CC[C@@]4(C)[C@]3(C)CC[C@H]2C(C)(C)C1=O (some centres undefined) | 2200 | – | – |
| CC1(C)CC[C@]2(C(=O)O)CC[C@]3(C)C(=CC[C@@H]4[C@@]5(C)C=C(Br)C(=O)C(C)(C)[C@@H]5CC[C@]43C)C2C1 (some centres undefined) | 7300 | – | – |
| COC(=O)C1=C[C@]2(C)C3=CC(=O)C4C5CC(C)(C)CC[C@]5(C(=O)OC)CC[C@@]4(C)[C@]3(C)CC[C@H]2C(C)(C)C1=O (some centres undefined) | – | Toxic | Not Active |
| CC1(C)CC[C@]2(C(=O)O)CC[C@]3(C)C(=CC(=O)[C@@H]4[C@@]5(C)C=C(C#N)C(=O)C(C)(C)[C@@H]5CC[C@]43C)C2C1 (some centres undefined) | 40 | – | – |
| CC1(C)CC[C@]2(C(=O)O)CC[C@]3(C)C(C(=O)C=C4[C@@]5(C)C=C(C(=O)O)C(=O)C(C)(C)[C@@H]5CC[C@]43C)C2C1 (some centres undefined) | 200 | – | – |
| CC1(C)CC[C@]2(C(=O)O)CC[C@]3(C)C(=CC[C@@H]4[C@@]5(C)C=CC(=O)C(C)(C)[C@@H]5CC[C@]43C)C2C1 (some centres undefined) | 5600 | – | – |
| COC(=O)[C@]12CCC(C)(C)CC1C1=CC[C@@H]3[C@@]4(C)C=C(Cl)C(=O)C(C)(C)[C@@H]4CC[C@@]3(C)[C@]1(C)CC2 (some centres undefined) | > 40000 | – | – |
| COC(=O)C1=C[C@]2(C)[C@H]3CC=C4C5CC(C)(C)CC[C@]5(C(=O)OC)CC[C@@]4(C)[C@]3(C)CC[C@H]2C(C)(C)C1=O (some centres undefined) | 900 | – | – |
| COC(=O)[C@]12CCC(C)(C)CC1C1=CC[C@@H]3[C@@]4(C)C=C(Br)C(=O)C(C)(C)[C@@H]4CC[C@@]3(C)[C@]1(C)CC2 (some centres undefined) | > 40000 | – | – |
| CC1(C)CC[C@]2(C(=O)O)CC[C@]3(C)C(=CC[C@@H]4[C@@]5(C)C=C(Cl)C(=O)C(C)(C)[C@@H]5CC[C@]43C)C2C1 (some centres undefined) | > 40000 | – | – |
| CC1(C)CC[C@]2(C(=O)O)CC[C@]3(C)C(=CC[C@@H]4[C@@]5(C)C=C(C(=O)O)C(=O)C(C)(C)[C@@H]5CC[C@]43C)C2C1 (some centres undefined) | 70 | – | – |
| COC(=O)[C@]12CCC(C)(C)CC1C1=CC[C@@H]3[C@@]4(C)C=C(C#N)C(=O)C(C)(C)[C@@H]4CC[C@@]3(C)[C@]1(C)CC2 (some centres undefined) | 700 | – | – |
| COC(=O)[C@]12CCC(C)(C)CC1C1=CC[C@@H]3[C@@]4(C)C=C(C=O)C(=O)C(C)(C)[C@@H]4CC[C@@]3(C)[C@]1(C)CC2 (some centres undefined) | – | Toxic | Not Active |
| COC(=O)[C@]12CCC(C)(C)CC1C1C(=O)C=C3[C@@]4(C)C=C(C(=O)O)C(=O)C(C)(C)[C@@H]4CC[C@@]3(C)[C@]1(C)CC2 (some centres undefined) | 0.8 | – | – |
| C[C@]12CCC(=O)C=C1CCC1[C@@H]2[C@@H](O)C[C@@]2(C)[C@H]1CC[C@]2(O)C(=O)CO (single isomer, unassigned) [HYDROCORTISONE] | 10 | – | – |
| COC(=O)[C@]12CCC(C)(C)C[C@H]1[C@H]1C(=O)C=C3[C@@]4(C)C=C(C#N)C(=O)C(C)(C)[C@@H]4CC[C@@]3(C)[C@]1(C)CC2 [BARDOXOLONE METHYL] | 0.1 | – | – |
| CC1(C)CC[C@]2(C(=O)O)CC[C@]3(C)[C@H](C(=O)C=C4[C@@]5(C)C=C(C#N)C(=O)C(C)(C)[C@@H]5CC[C@]43C)[C@@H]2C1 [BARDOXOLONE] | 0.2 | – | – |
| C[C@@H]1C[C@H]2[C@@H]3CCC4=CC(=O)C=C[C@]4(C)[C@@]3(F)[C@@H](O)C[C@]2(C)[C@@]1(O)C(=O)CO [DEXAMETHASONE] | 0.1 | – | – |
| CC1(C)CC[C@]2(C(=O)O)CC[C@]3(C)C(=CC[C@@H]4[C@@]5(C)CC[C@H](O)C(C)(C)[C@@H]5CC[C@]43C)[C@@H]2C1 [OLEANOLIC_ACID] | > 40000 | – | – |
